Results: article PMC10043937, “Pyranonaphthoquinones and Naphthoquinones from the Stem Bark of Ventilago harmandiana and Their Anti-HIV-1 Activity” (Journal of Natural Products, 2023)

Row | SMILES | melting point
1 | COC1=C(OC)C(=O)c2c(cc(C)c(C(C)=O)c2O)C1=O [Compound 6, 7-Acetyl-2,3-dimethoxy-8-hydroxy-6-methylnaphthalene-1,4-dione] | 146 to 147 °C
2 | COc1c(C)c2c(c(O)c1OC)C(=O)[C@@H]1[C@@H](C)O[C@@H](C)C[C@H]1C2=O [Compound 3, (1R,3S,4aR,10aS)-7,8-Dimethoxy-9-hydroxy-1,3,6-trimethyl-3,4,4a,10a-tetrahydro-1H-naphtho[2,3-c]pyran-5,10-dione] | 116 to 117 °C
